Experiments:
[1] = Part II saline-volume-changed study, plasma pharmacokinetics; format: in vivo, human; settings: single-dose infusion of 240 mg pyragrel diluted in 250 ml saline, n=4
Experimental: (§1) Pyragrel administration regimens are as follows: In the single-escalating-dose study (Part I), a total of 52 subjects are enrolled to receive one of three treatments (pyragrel, ozagrel, or placebo, diluted in 500 Ml normal saline) as a 3-h i.v. infusion. Six dose levels of pyragrel (30, 60,120, 180, 240, 300 mg) were intravenously infused to healthy subjects. Of the 12 subjects each at the first three dose groups (30, 60, and 120 mg), 8 received pyragrel, 2 received ozagrel (80 mg), and 2 received placebo. Eight subjects were assigned as 4/2/2 for pyragrel, ozagrel, and placebo at the 180 mg level. Only four subjects were enrolled at the 240- and 300-mg group each; all received pyragrel. […] In the saline-volume-changed study (Part II), the safety and pharmacokinetics of pyragrel were assessed by decreasing the volume of dilution saline. Four subjects received a single 3 h infusion of pyragrel 240 mg diluted in 250 ml saline instead of the 500 ml used in Part I. Blood samples were collected at multiple time points before and after the initiation of the infusion in Part I and Part II; 15 blood samples were predetermined as follows: before drug administration (time 0), 0.5, 1, 2, 3 (4 samples collected during infusion), 3.25, 3.5, 4, 5, 7, 9, 11, 15, 24, and 48 h (10 samples collected post infusion) after the initiation of the infusion. In the multiple-dose study (Part III), 12 subjects received a single 3 h infusion of 180 mg pyragrel (diluted in 250 ml saline) on Day 1 and Day 6 and twice 3 h infusion of 180 mg pyragrel from Day 2 to 5; 14 blood samples were collected on Day 1 and Day 6 before drug administration (0 h), 0.5, 1, 2, 3, 3.25, 3.5, 4, 5, 7, 9, 11, 15, 24 h after the initiation of the infusion; moreover, 5 ml cubital vein blood was collected each time right before pyragrel infusion on Day 2 to Day 5. In the 3×3 crossover study (Part IV), 12 subjects were randomized to receive each of the three dosing groups (60, 120, or 240 mg) of pyragrel (diluted with 250 ml saline, 3 h infusion) per period, with a 7-day washout period between doses. Sixteen blood samples were collected as follows: before drug administration (0 h), 0.17, 0.35, 0.5, 1, 2, 3, 3.25, 3.5, 4, 5, 7, 9, 11, 15, and 24 h after the initiation of the infusion at each period. In the prolonged infusion study (Part V), four subjects received continuous 24 h infusion of pyragrel 360 mg (diluted in 600 ml saline); 19 blood samples were collected as follows: before drug administration (0 h), 0.25, 0.5, 1, 2, 4, 8, 12, 16, 20 (nine samples collected during administration), 24.25, 24.5, 25, 26, 28, 30, 32, 36, and 48 h after the initiation of the infusion (details shown in Figure 1 ). In all five cohorts, 5 ml of cubital vein blood was collected with a sodium heparin anticoagulant tube and centrifuged at 3000 r·min^-1. Each plasma sample was divided into two aliquots and stored at −20°C until further bioanalysis. […] Briefly, 10 µl of the extract drug from […] was injected onto a Zorbax EcLipse XDB C18 column (2.1 mm × 150 mm, 5 μm) (Agilent, USA) using isocratic elution with a mobile phase composed of methanol, water, and formic acid (65:35:0.1, v/v/v). Determination of the analytes was achieved by tandem-mass spectrometry with positive electrospray ionization.
(§2) Pharmacokinetic parameters were calculated using the noncompartmental model (NCA module), WinNonlin 6.1 (Pharsight Corporation, Mountain View, CA, USA). Statistical analysis was performed with SPSS 18. The actual dosing and sampling times were utilized in the analysis. Pharmacokinetic parameters were summarized by dose regimens using descriptive statistics, including n, mean, and the coefficient of variation (CV). For Tmax, only n, min, median, and max were reported.

[2] = Part IV 3×3 crossover study, plasma pharmacokinetics; format: in vivo, human
Experimental: as §1, §2
In Part IV, a multivariate ANOVA model containing subjects, treatments (60, 120, or 240 mg), periods, and gender was used to analyze log-transformed Cmax and AUC. Tmax was analyzed using various related Friedman nonparametric tests.

[3] = Part V prolonged 24 h infusion study, plasma pharmacokinetics; format: in vivo, human; settings: for AUCINF / AUClast / Cl / Cmax / Tmax / Vz / t1/2: continuous i.v. infusion of pyragrel 360 mg within 24 h, plasma, n=4, mean ± SD
Experimental: as §1, §2

[4] = Acute toxicity study in mice; format: in vivo
[5] = Preliminary pharmacodynamic studies of the metabolites; settings: data not shown
Experimental: Based on the pharmacological activity, the pharmacokinetic characteristics of the metabolites were evaluated in the study.

[6] = mice, daily 36 mg/kg injections for 4 days, cited from earlier work
focal cerebral ischemia = settings: cited from earlier work
[7] = dog, in vivo; cited from earlier work
[8] = metabolite in plasma after pyragrel 60 mg, n=12
[9] = metabolite in plasma after pyragrel 120 mg, n=12
[10] = metabolite in plasma after pyragrel 240 mg, n=12
[11] = pyragrel 60 mg, 3 h infusion, plasma, n=12, mean ± SD
[12] = pyragrel 120 mg, 3 h infusion, plasma, n=12, mean ± SD
[13] = pyragrel 240 mg, 3 h infusion, plasma, n=12, mean ± SD

COc1cc(CCC(=O)O)ccc1OCc1nc(C)c(C)nc1C [BBS] gave an AUCINF [1] of 10315.00 ± 5472.87 ng·h/mL, an AUClast [1] of 10085.90 ± 5357.26 ng·h/mL and a Cl [1] of 36.06 ± 33.86 L/h. It also gave a Cmax [1] of 2066.22 ± 977.65 ng/mL, an MRTINF [1] of 4.13 ± 0.70 h and an MRTlast [1] of 3.50 ± 0.74 h. The Tmax [1] was 3.19 ± 0.24 h, the Vz [1] was 372.66 ± 424.67 L and the t1/2 [1] was 6.31 ± 1.38 h. It also gave a λz [1] of 0.11 ± 0.03 h⁻¹, an AUCINF [2, 8] of 1882.93 ± 534.37 µg·h/L and an AUClast [2, 8] of 1821.9 ± 496.75 µg·h/L. For the same compound, the Cl [2, 8] was 34.77 ± 11.33 L/h, the Cmax [2, 8] was 373.16 ± 101.22 ng/mL and the Tmax [2, 8] was 3.29 ± 0.18 h. The Vz [2, 8] was 261.4 ± 115.98 L, the t1/2 [2, 8] was 5.12 ± 1.17 h and the AUCINF [2, 9] was 4036.27 ± 1186.62 µg·h/L. For the same compound, the AUClast [2, 9] was 3969.83 ± 1184.3 µg·h/L, the Cl [2, 9] was 32.54 ± 10.86 L/h and the Cmax [2, 9] was 837.84 ± 228.5 ng/mL. The Tmax [2, 9] was 3.27 ± 0.17 h, the Vz [2, 9] was 250.94 ± 149.96 L and the t1/2 [2, 9] was 5.08 ± 1.38 h. For the same compound, the AUCINF [2, 10] was 9572.13 ± 3748.80 µg·h/L, the AUClast [2, 10] was 9440.71 ± 3717.86 µg·h/L and the Cl [2, 10] was 30.04 ± 16.36 L/h. For the same compound, the Cmax [2, 10] was 2041.56 ± 684.12 ng/mL, the Tmax [2, 10] was 3.25 ± 0.18 h and the Vz [2, 10] was 212.93 ± 126.27 L. The AUCINF [3] was 11,533 ± 3,946 h*µg·L^-1, the AUClast [3] was 11,500 ± 3,952 h*µg·L^-1 and the Cl [3] was 34.11 ± 11.36 L/h. It also gave a Cmax [3] of 566.1 ± 195.0 ng/mL, a Tmax [3] of 18.06 ± 4.13 h and a Vz [3] of 234.4 ± 89.53 L. The t1/2 [3] was 4.74 ± 0.65 h, the LD50 [4] was over 929.7 mg/kg and the “Antiplatelet and antithrombotic effects” value [5] was “weak”.
Work on COc1cc(C=CC(=O)[O-])ccc1OCc1nc(C)c(C)nc1C.[Na+] [Pyragrel, sodium pyragrel] yielded an AUCINF [1] of 9638.78 ± 1487.08 ng·h/mL, an AUClast [1] of 9600.11 ± 1446.10 ng·h/mL and a Cl [1] of 25.38 ± 4.18 L/h. For the same compound, the Cmax [1] was 3360.73 ± 622.63 ng/mL, the MRTINF [1] was 1.02 ± 0.33 h and the MRTlast [1] was 0.90 ± 0.16 h. It also gave a Tmax [1] of 3.00 ± 0.00 h, a Vz [1] of 221.12 ± 75.68 L and a t1/2 [1] of 6.19 ± 2.63 h. The λz [1] was 0.13 ± 0.04 h⁻¹, the AUCINF [2, 11] was 2,003.8 ± 318.7 h*µg·L^-1 and the AUClast [2, 11] was 1,990.8 ± 317.9 h*µg·L^-1. It also gave a Cl [2, 11] of 30.65 ± 4.91 L/h, a Cmax [2, 11] of 641.2 ± 107.8 ng/mL and a Tmax [2, 11] of 2.75 ± 0.45 h. The Vz [2, 11] was 184.5 ± 80.37 L, the t1/2 [2, 11] was 4.28 ± 1.84 h and the AUCINF [2, 12] was 4,325.2 ± 541.5 h*µg·L^-1. The AUClast [2, 12] was 4,317.4 ± 541.1 h*µg·L^-1, the Cl [2, 12] was 28.18 ± 3.83 L/h and the Cmax [2, 12] was 1505.6 ± 178.7 ng/mL. For the same compound, the Tmax [2, 12] was 2.58 ± 0.51 h, the Vz [2, 12] was 197.6 ± 77.76 L and the t1/2 [2, 12] was 4.82 ± 1.63 h. For the same compound, the AUCINF [2, 13] was 9,292.8 ± 1,468.0 h*µg·L^-1, the AUClast [2, 13] was 9,279.1 ± 1,466.3 h*µg·L^-1 and the Cl [2, 13] was 26.45 ± 4.34 L/h. The Cmax [2, 13] was 3165.7 ± 426.4 ng/mL, the Tmax [2, 13] was 2.92 ± 0.29 h and the Vz [2, 13] was 194.3 ± 72.28 L. The t1/2 [2, 13] was 5.06 ± 1.58 h, the “Plasma concentration remaining, fraction of Cmax” value ([3]; at 4 h post-infusion) was 1/20 and the AUCINF [3] was 14,995 ± 2,494 h*µg·L^-1. For the same compound, the AUClast [3] was 14,984 ± 2,497 h*µg·L^-1, the Cl [3] was 24.47 ± 3.75 L/h and the Cmax [3] was 861.7 ± 155.1 ng/mL. For the same compound, the Tmax [3] was 14.00 ± 7.66 h, the Vz [3] was 260.2 ± 144.4 L and the t1/2 [3] was 7.05 ± 3.74 h. The AUCINF ([3]; listed as pyragrel) was 14,994.57 ± 2,493.9 h*µg·L^-1, the AUClast ([3]; listed as pyragrel) was 14,984.40 ± 2,496.64 h*µg·L^-1 and the Cmax ([3]; listed as pyragrel) was 861.67 ± 155.05 ng/mL. The LD50 [4] was 929.7 mg/kg, the “Bleeding time, lower than with ozagrel” value ([6]; P < 0.01) was 35% and the “Prolongation of coagulation time, pyragrel vs ozagrel” value [6] was “comparable”. The “Effect against focal cerebral ischemic injury and focal cerebral ischemia-reperfusion” value (focal cerebral ischemia; rat models of focal cerebral ischemia, ref Wang and Wu, 2014) was “markedly protective effects”, the Nerve function (focal cerebral ischemia; rats with focal cerebral ischemia-reperfusion injury, continuous infusion of pyragrel for 7 days) was “significant improvements” and the Maximum safe dose [7] was over 12.5 mg/kg/day.

From PMC6821791, “Phase I Trial of Pyragrel, a Novel Thromboxane Synthetase Inhibitor, to Evaluate the Safety, Tolerability, and Pharmacokinetics in Healthy Volunteers” (Frontiers in Pharmacology, 2019)
